B1: mouse CXCR4 on bone marrow-derived pre-B cells (WT or BCR-ABL1 transformed) (receptor, UniProt P70658 1-359, looked up)
chain: MEPISVSIYTSDNYSEEVGSGDYDSNKEPCFRDENVHFNRIFLPTIYFIIFLTGIVGNGLVILVMGYQKKLRSMTDKYRLHLSVADLLFVITLPFWAVDAMADWYFGKFLCKAVHIIYTVNLYSSVLILAFISLDRYLAIVHATNSQRPRKLLAEKAVYVGVWIPALLLTIPDFIFADVSQGDISQGDDRYICDRLYPDSLWMVVFQFQHIMVGLILPGIVILSCYCIIISKLSHSKGHQKRKALKTTVILILAFFACWLPYYVGISIDSFILLGVIKQGCDFESIVHKWISITEALAFFHCCLNPILYAFLGAKFKSSAQHALNSMSRGSSLKILSKGKRGGHSSVSTESESSSFHSS
notes: whole, on cells
B2: mouse IL7R on bone marrow-derived pre-B cells (WT or BCR-ABL1 transformed) (receptor, UniProt P16872 21-459, looked up)
chain: ESGNAQDGDLEDADADDHSFWCHSQLEVDGSQHLLTCAFNDSDINTANLEFQICGALLRVKCLTLNKLQDIYFIKTSEFLLIGSSNICVKLGQKNLTCKNMAINTIVKAEAPSDLKVVYRKEANDFLVTFNAPHLKKKYLKKVKHDVAYRPARGESNWTHVSLFHTRTTIPQRKLRPKAMYEIKVRSIPHNDYFKGFWSEWSPSSTFETPEPKNQGGWDPVLPSVTILSLFSVFLLVILAHVLWKKRIKPVVWPSLPDHKKTLEQLCKKPKTSLNVSFNPESFLDCQIHEVKGVEARDEVESFLPNDLPAQPEELETQGHRAAVHSANRSPETSVSPPETVRRESPLRCLARNLSTCNAPPLLSSRSPDYRDGDRNRPPVYQDLLPNSGNTNVPVPVPQPLPFQSGILIPVSQRQPISTSSVLNQEEAYVTMSSFYQNK
notes: whole, on cells; also called IL7Rα
B3: IL7: cytokine that binds IL7Rα chain (protein)
chain: DCDIEGKDGKQYESVLMVSIDQLLDSMKEIGSNCLNNEFNFFKRHICDANKEGMFLFRAARKLRQFLKMNSTGDFDLHLLKVSEGTTILLNCTGQVKGRKPAALGEAQPTKSLEENKSLKEQKKLNDLCFLKRLLQEIKTCWNKILMGTKEH
B4: human CXCR4 on SUP-B15 cells (receptor, UniProt P61073 1-352, looked up)
chain: MEGISIYTSDNYTEEMGSGDYDSMKEPCFREENANFNKIFLPTIYSIIFLTGIVGNGLVILVMGYQKKLRSMTDKYRLHLSVADLLFVITLPFWAVDAVANWYFGNFLCKAVHVIYTVNLYSSVLILAFISLDRYLAIVHATNSQRPRKLLAEKVVYVGVWIPALLLTIPDFIFANVSEADDRYICDRFYPNDLWVVVFQFQHIMVGLILPGIVILSCYCIIISKLSHSKGHQKRKALKTTVILILAFFACWLPYYIGISIDSFILLEIIKQGCEFENTVHKWISITEALAFFHCCLNPILYAFLGAKFKTSAQHALTSVSRGSSLKILSKGKRGGHSSVSTESESSSFHSS
notes: whole, on cells; In the immunoprecipitation it comes from SUP-B15 lysate; also called C-X-C chemokine receptor 4

Legend:
[1] = system: BCR-ABL1 transformed cells; assay: Imatinib-induced cell death in the presence of cytokine/chemokine (viability, cell cycle); assay type: cell-based, mouse; settings: added together with 1 μM imatinib
Protocol: BM cells from WT (n=7, female), IL7Rα^Δ (n=7, female), IL7Rα^fl/fl (n=7, female), CXCR4^fl/fl (n=3, female) and FoxO1^fl/fl (n=3, female) mice were collected and retrovirally transformed with either an empty pMIG vector or with a pMIG vector expressing BCR-ABL1. Unless mentioned otherwise, cells were cultured for 3 to 7 days in Iscove's medium (Biochrom AG) containing 10% heat-inactivated FCS (Sigma-Aldrich), 2 mM 1-glutamine, 100 U/ml penicillin (Gibco), 100 U/ml streptomycin (Gibco), and 50 μM 2-mercaptoethanol. The medium was supplemented in excess with the supernatant of J558L plasmacytoma cells stably transfected with a vector encoding murine IL7. Transformed cells were selected by IL7 withdrawal and kept in optimum conditions^38. Retroviral vectors containing either constitutively active STAT5 (STAT5-CA)^34 or an empty vector were used to transduce BCR-ABL1-transformed cells and sorted cells were used then for western blot or flow cytometry analysis. 1-2μM 4-hydroxy tamoxifen (Tam) (Sigma-Aldrich) was used to induce deletion on plasmids expressing tamoxifen-inducible form of Cre (Cre-ER^T2)^14. All cells were tested and found free from mycoplasma.
Antibodies for flow cytometry (CD19, IL7R, CXCR4, FoxO1 and CD11b) were purchased from (eBiosciences, BioLegend, Invitrogen or Cell Signaling). Intracellular flow cytometry staining was performed using Fix and Perm cell permeabilization kit (ADG). Cell viability was measured using Sytox® blue dead cell stain (Life Technologies). FACS Cantoll (BD Biosciences) was used for flow cytometry, and FlowJo v.10.1 was used for data analysis.

[2] = system: BCR-ABL1 transformed cells; assay: CXCL12-induced Ca2+ flux; assay type: cell-based, mouse; settings: CXCL12 100 ng/ml
Protocol: A total of 1×10^6 cells were loaded with Indo-1 AM (Invitrogen) and used for Ca^2+ analyses^62. 100 ng/m1 of CXCL12 was used for stimulation

[3] = system: human Ph+ ALL SUP-B15 cell line; assay: IL7R and CXCR4 surface expression after imatinib in a human Ph+ ALL cell line; assay type: cell-based; settings: 5 μM imatinib, day 7, surface expression
Protocol: 68 BCR-ABL+ ALL patients were treated according to European intergroup study of post-induction treatment of Philadelphia-chromosome-positive ALL (EsPhALL) 2004 and 2010 protocols (NCT00287105) and ALL-Berlin-Frankfurt-Münster (BFM) 2000 (NCT00430118) study. Informed consent was obtained according to institutional regulations, in accordance with the Declaration of Helsinki. 697, SUP-B15, and TOM-1 cell lines were obtained from DSMZ. Ph+ ALL cells containing T3151 mutation was kindly provided by M. Miischen (Shojaee, S., et al. Nat Med 22, 379-387 (2016)).

[4] = target: T1, mouse Jak3 in pre-B cells (mouse, UniProt Q62137 1-1100); assay: proximity ligation assay on mouse BCR-ABL1 transformed pre-B cells
T1 construct: Detected in cells by PLA with an antibody from Cell Signaling
T1 sequence (looked up): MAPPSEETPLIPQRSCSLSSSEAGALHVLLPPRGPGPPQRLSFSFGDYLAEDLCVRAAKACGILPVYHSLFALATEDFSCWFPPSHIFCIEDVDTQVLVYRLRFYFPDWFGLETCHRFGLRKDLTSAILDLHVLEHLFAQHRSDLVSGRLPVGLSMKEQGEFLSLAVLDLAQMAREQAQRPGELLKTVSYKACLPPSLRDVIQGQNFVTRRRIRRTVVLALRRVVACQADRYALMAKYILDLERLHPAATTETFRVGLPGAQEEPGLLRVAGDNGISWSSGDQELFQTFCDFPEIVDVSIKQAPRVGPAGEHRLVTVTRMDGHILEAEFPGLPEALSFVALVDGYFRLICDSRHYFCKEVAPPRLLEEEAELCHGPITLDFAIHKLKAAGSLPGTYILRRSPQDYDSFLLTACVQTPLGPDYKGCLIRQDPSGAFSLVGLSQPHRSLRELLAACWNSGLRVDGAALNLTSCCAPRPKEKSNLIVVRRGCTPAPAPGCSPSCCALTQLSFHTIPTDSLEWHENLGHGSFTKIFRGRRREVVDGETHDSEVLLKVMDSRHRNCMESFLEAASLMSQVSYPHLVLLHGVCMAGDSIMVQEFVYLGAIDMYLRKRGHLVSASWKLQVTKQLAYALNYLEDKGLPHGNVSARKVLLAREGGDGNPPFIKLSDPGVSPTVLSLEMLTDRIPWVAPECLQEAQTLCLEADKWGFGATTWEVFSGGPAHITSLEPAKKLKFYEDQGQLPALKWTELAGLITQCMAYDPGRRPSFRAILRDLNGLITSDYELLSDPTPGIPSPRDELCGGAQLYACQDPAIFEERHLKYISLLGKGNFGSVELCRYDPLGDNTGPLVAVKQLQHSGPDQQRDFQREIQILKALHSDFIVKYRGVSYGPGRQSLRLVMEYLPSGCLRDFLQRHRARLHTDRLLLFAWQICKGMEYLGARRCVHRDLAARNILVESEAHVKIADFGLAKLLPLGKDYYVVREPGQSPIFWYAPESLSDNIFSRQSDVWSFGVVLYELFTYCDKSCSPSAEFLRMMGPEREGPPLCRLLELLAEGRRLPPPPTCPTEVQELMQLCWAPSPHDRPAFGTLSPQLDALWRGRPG

[5] = target: B2; assay: proximity ligation assay on mouse pre-B cells
[6] = target: T1, mouse Jak3 in pre-B cells; assay: proximity ligation assay on mouse WT and BCR-ABL1 transformed pre-B cells
[7] = target: T2, human interleukin 7 receptor (IL7R) on SUP-B15 Ph+ BCP-ALL cells (human, UniProt P16871 21-459); assay: Fab-PLA on SUP-B15 cells in comparison to Ramos cells
T2 construct: whole, on cells; In the immunoprecipitation it comes from SUP-B15 lysate; also called IL7Rα; human IL7Rα
T2 sequence (looked up): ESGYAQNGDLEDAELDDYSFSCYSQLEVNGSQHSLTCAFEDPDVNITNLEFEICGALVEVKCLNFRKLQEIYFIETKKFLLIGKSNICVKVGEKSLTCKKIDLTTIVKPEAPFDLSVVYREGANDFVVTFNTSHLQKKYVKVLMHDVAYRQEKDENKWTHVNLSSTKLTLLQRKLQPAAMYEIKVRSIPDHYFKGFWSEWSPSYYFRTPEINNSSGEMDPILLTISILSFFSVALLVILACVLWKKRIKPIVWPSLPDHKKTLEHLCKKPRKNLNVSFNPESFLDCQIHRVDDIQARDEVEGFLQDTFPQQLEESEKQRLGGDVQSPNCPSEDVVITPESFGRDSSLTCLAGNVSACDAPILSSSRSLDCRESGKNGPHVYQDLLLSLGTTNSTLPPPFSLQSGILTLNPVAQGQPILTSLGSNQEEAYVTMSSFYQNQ

c1cc(CN2CCCNCCNCCCNCC2)ccc1CN1CCCNCCNCCCNCC1 [AMD3100]
effect on imatinib-induced cell death [1]: did not affect imatinib treatment
CXCL12-induced Ca2+ response [2]: prevented the Ca^2+ response

Cc1ccc(NC(=O)c2ccc(CN3CCN(C)CC3)cc2)cc1Nc1nccc(-c2cccnc2)n1 [imatinib]
expression of IL7R and CXCR4 [3]: upregulated IL7R and CXCR4

CXCL12: chemokine, the ligand for CXCR4
effect on imatinib-induced cell death [1]: did not affect imatinib treatment

TSLP: the ligand for CRLF2
effect on imatinib-induced cell death [1]: unable to rescue BCR-ABL1 transformed cells from inhibitor-induced cell death

B1
binding result [4]: binds
binding result [5]: binds

B2
binding result [6]: binds

B3
effect on imatinib-induced cell death [1]: counteracted imatinib-induced cell death and restored the cell cycle progression

B4
binding result [7]: binds
